Source: patent publication US20120270251A1, “INHIBITION OF THE ACTIVITY OF KINASE AND SYNTHETASE ENZYMES” (CSIR, priority 2009, published 2012)

Molecular target: Mycobacterium tuberculosis shikimate kinase (Mycobacterium tuberculosis, UniProt P9WPY3)
Assay: Shikimate kinase steady-state kinetics, ATP vs C8D-ATP
Format: biochemical
From the text: Hexokinase from Saccharomyces cerevisiae Type F-300 (Sigma, H4502) and Acetate kinase from E. coli (Sigma, A7437) were purchased. The human adenylate kinase (AK1) gene in vector pLIG-SC1 was obtained from the Structural Genomics Consortium (code AK1A). The His-tagged AK1 was produced in Escherichia coli Origami (DE3) and purified using the Bio-Rad Profinia Purification System. […] The Mycobacterium tuberculosis shikimate kinase gene in pET15b (Novagen) was obtained from the group of Chris Abell, Cambridge University, UK. The his-tagged MtSK was produced in E. coli BL21 (DE3) and purified using the Bio-Rad Profinia Purification System. The pure protein was dialysed against 50 mM Tris (pH 7.5) and 1,000 mM NaCl. Adenylylated (GS12) and deadenylylated (GS0) glutamine synthetase were prepared as outlined below.
The final volumes were 100 μl, and the reactions were incubated at 37° C. for 20 minutes, before being terminated by the addition of 5 μl 200 mM EDTA.
The results are reflected in FIGS. 19 to 25. […] The best-fit to the data was obtained for the specified kinetic model using the non-linear regression algorithms as outlined using the GraphPad Prism® 5 software. […] These response curves were then used to define the KIE by the conventional estimation of KIE from KIE=vH/vD. The KIED was also determined using the following function: […]

[1] = tested model: Allosteric sigmoidal

Chain of Mycobacterium tuberculosis shikimate kinase (P9WPY3 whole entry): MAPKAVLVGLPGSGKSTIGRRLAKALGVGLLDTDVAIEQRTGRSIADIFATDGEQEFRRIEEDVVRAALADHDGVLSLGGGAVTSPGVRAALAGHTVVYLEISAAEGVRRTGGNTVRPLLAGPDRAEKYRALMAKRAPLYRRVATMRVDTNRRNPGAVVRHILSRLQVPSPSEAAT

For `Nc1ncnc2c1ncn2[C@@H]1O[C@H](COP(=O)(O)OP(=O)(O)OP(=O)(O)O)[C@@H](O)[C@H]1O` [C8D-ATP], the KIEvmax (KIE at maximum enzyme activity) was 1, the “fit to kinetic model” value [1] was “Allosteric sigmoidal” and the “fit to kinetic model” value (tested model: Michaelis-Menton) was “Fit ambiguous”.

With `Nc1ncnc2c1ncn2[C@@H]1O[C@H](COP(=O)(O)OP(=O)(O)OP(=O)(O)O)[C@@H](O)[C@H]1O` [ATP, adenosine triphosphate, reference compound] the “fit to kinetic model” value [1] was “Allosteric sigmoidal” and the “fit to kinetic model” value (tested model: Michaelis-Menton) was “Fit ambiguous”.
